Experimental data: patent US10100079B2, “Progesterone-cationic lipid hybrid as anticancer agent and the process of synthesis thereof” (Council of Scientific & Industrial Research, priority 2016, dated 2018)

Columns and labels:
B16F10 tumor = test: In vivo tumor study, B16F10 melanoma model; parameters: species or system C57BL6/J mice; settings: 15 mg/Kg i.p., 5 injections
Protocol: 6-8 weeks old female C57BL6/J mice, obtained from CCMB (Hyderabad, India), were subcutaneously inoculated with 2.5×10^5 B16F10 cells in the lower left abdomen. Thirteen days after B16F10 cell inoculation, mice were grouped as per the treatment where each group contained 5 mice. The groups were as follows (i) untreated group, (ii) treated with progesterone (compound 1) (6 mg/Kg) and (iii) 6c (15 mg/Kg). Each compound suspended in PBS containing 10% DMSO and injected intraperitoneally to the respective mice. Five injections were given with a gap of 2 days. The tumor sizes were measured in volume (mm^3) and calculated using the formula (0.5ab^2), where ‘a’ represents the longest dimension and ‘b’ is the shortest dimension of the tumors. Experiment was terminated when the average tumor volume of the untreated group reached ˜4000 mm^3. All animal work was done following the protocols approved by Institutional Animal Ethical Committee of CSIR-IICT, India.

[1] = system: PI3K/AKT pathway involving protein in B16F10 cells; test: Western blot of B16F10 cell lysates: PI3K/AKT pathway involving protein (FIG. 4B); assay type: cell-based, murine; settings: B16F10, 10 μM, 36 h
Protocol: (§1) For in vitro cell lysate preparation, B16F10 cells were either treated with compound 1 (10 μM), 6c (10 μM) or kept untreated for 36 h continuously. After that cells were washed with cold PBS for two times, and lysed by incubating for 30 min on ice with ice-cold RIPA lysis buffer (50 mM Tris [pH 7.5], 1% NP-40, 150 mM NaCl, 0.1% sodium dodecyl sulfate [SDS], 0.5% sodium deoxycholate) containing 1% proteinase inhibitor cocktails (PIC) (Cell Signaling Technology). Following 30 min of incubation cells were centrifuged at 14,000 rpm at 4° C. for 15 minutes, supernatant was collected, and Protein concentration was measured by using BCA assay a kit (thermo scientific). For in vivo whole cell lysate, after completion of the in vivo experiment one C57BL/6J mice with representative tumor size from each group was sacrificed and tumor was collected, lysed by ice-cold RIPA buffer with 1% PIC, whole cell lysate was prepared following the same steps as mentioned above. Respective cell lysates were run in SDS-PAGE gel (8%-15%) and then the bands were transferred to polyvinylidene fluoride (PVDF) membrane. Membranes were then first incubated with respective primary antibodies and then with alkaline phosphates conjugated secondary antibody (Goat-anti-rabbit and Goat-anti-mouse). Immunodetection was performed with BCIP/NBT substrate (Sigma-Aldrich).
(§2) Cytochrome-C (4272S), BAX (2772S), Bcl-2 (2876S), Cassepase-3 (9665S), β-actin (8457S), PI3K-p110α (4249S), PI3K-p85 (4257S), AKT (272S), p-AKT (4060S), PTEN (9552S), p-mdm2 (3521S), p53 (2524S), GAPDH (5174S) were purchased from Cell Signaling Technology; Casepase-9 (PA5-16358) was purchased from Pierce; mdm2 (ab38618) was purchased from Abcam; secondary antibodies mouse anti-rabbit IgG-PE (sc-3753) was purchased from Santa Cruz Biotechnology; Goat anti-mouse IgG Alkaline Phosphatase (DC05L) and goat anti-rabbit IgG Alkaline Phosphatase (DC06L) were purchased from Calbiochem.

B16F10 = test: Apoptosis by flow cytometry (annexin V-FITC/PI), B16F10; assay type: cell-based, murine; settings: B16F10, 10 μM, 36 h
Protocol: (§3) Apoptosis study was performed by flow cytometry using annexin V-FITC-labeled apoptosis detection kit (Sigma) following manufacturer's protocol. Cells (□×□□^□ cells/well) were seeded in six-well plates and incubate for 16-18 h. After 16-18 h, cells were either kept untreated or treated with 10 μM compound 1 and 10 μM 6c for 36 h. Next, cells were trypsinized and washed with PBS. Then the cells were re-suspended in 1× binding buffer at a density of 1×10^6 cells/ml and stained simultaneously with FITC-labeled annexin V (25 ng/ml) and propidium iodide (50 ng/ml). After 15 min incubation, cells were analyzed using a flow cytometer (FACS Canto II, Becton-Dickinson, San Jose, Calif., USA), and data were analyzed with FCS Express V3 software. Minimum of 10000 events were gated per sample.

CHO = test: Apoptosis by flow cytometry (annexin V-FITC/PI), CHO; assay type: cell-based, Chinese hamster; settings: 10 μM, 36 h
Protocol: as §3

B16F10 tumor sections = test: TUNEL assay with VE-cadherin staining on tumor sections; assay type: in vivo, mice
Protocol: After completion of the in vivo experiment, one mouse from each group was sacrificed to check the apoptosis in tumor mass. First the tumors were frozen in Jung tissue medium (Leica Microsystem, Germany) followed by cryo-sectioning of 10 μm thin sections using Leica CM1850 cryostat (Germany). These were then fixed into 4% formalin for 15 min. TUNEL assay was carried out using Dead-End fluorometric apoptosis detection kit ([…]) following manufacturer's protocol. The same cryosections were washed with PBS and incubated with VE-cadherin mouse monoclonal antibody at 1:200 dilutions (Santa Cruz Biotech.) for 2 h at 4° C. to stain the blood vessel, followed by one hour incubation with goat anti-mouse IgG-PE (Santa Cruz Biotech.) secondary antibody; after that tissue sections were washed and observed under Nikon TE2000E microscope at 10× magnification.

[2] = system: apoptosis related protein in B16F10 cells; test: Western blot of B16F10 cell lysates: apoptosis related protein (FIG. 4A); assay type: cell-based, murine; settings: B16F10, 10 μM, 36 h
Protocol: as §1, §2

[3] = system: B16F10 tumor lysate proteins; test: Western blot analysis with B16F10 tumor lysates (FIG. 5B); parameters: species or system C57BL/6J mice; settings: B16F10 tumor lysate after in vivo treatment
Protocol: as §1, with “(Sigma-Aldrich). […]” for “(Sigma-Aldrich).”

CCCCCCCCCC[N+](C)(CCCCCCCCCC)CCNC(=O)CCC(=O)O[C@@H](C)[C@H]1CCC2C3CCC4=CC(=O)CC[C@]4(C)C3CC[C@@]21C (stereo partly drawn) [Compound 6c, N-decyl-N-(2-(4-((1S)-1-((10R,13S,17S)-10,13-dimethyl-3-oxo-2,3,6,7,8,9,10,11,12,13,14, 15,16,17-tetradecahydro-1H-cyclopenta[a]phenanthren-17-yl)ethoxy)-4-oxobutanamido)ethyl)-N-methyldecan-1-aminium chloride]
tumor growth and aggression versus UT and progesterone-treated groups (B16F10 tumor; B16F10 in C57BL6/J mice): significant inhibition | tumor size of UT group compared to treated group (B16F10 tumor; day 25 from tumor cell inoculation): ~4 times | PTEN protein expression [1]: elevated expression | expression of catalytic and regulatory subunit of PI3K protein [1]: decrease in the expression | p53 expression level [1]: elevated the expression level | p-AKT level compared to PR treated group [1]: significant reduction | pMdm2 level [1]: reduced | apoptotic cell (B16F10): 53.22% | apoptosis in normal cell (CHO): largely remains unaffected | extent of apoptosis induced in the blood vessel (B16F10 tumor sections; TUNEL / VE-cadherin merge, tumor sections): very high | number of apoptotic cells in tumor compared to untreated or PR (B16F10 tumor sections; TUNEL, tumor sections of treated mice): significantly higher | BAX/Bcl-2 ratio compared to untreated group [2]: ~4 fold | caspase 3 expression [2]: increase in level | caspase 9 [2]: formation of active caspase 9 | cytochrome C expression [2]: elevated expression | caspase 3 in tumor lysate [3]: increase | p53 expression level in tumor lysate [3]: significant increase
